Experimental data published in publication PMC5706701, “Development of a homogenous high-throughput assay for inositol hexakisphosphate kinase 1 activity” (PLoS ONE, 2017).
Where a name gives a salt, the structure may show the parent alone. Read-outs that look alike come from different tables or passages of the source.

Biological target: T1, Human IP6K1 (Homo sapiens, UniProt Q92551)
T1 construct: GST (N, cleaved yes); made in house; host or cells: C43 E. coli, pGEX-6P-2
Experiment: IP6K1 high-throughput screen of the Sigma LOPAC (ADP-Glo Max, single point);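 further: final compound concentration 10µM in 5% DMSO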
Assay type: biochemical

[1] = LOPAC single-point screen, ADP-Glo Max luminescence raw signal per well
[2] = LOPAC single-point screen, Z-score relative to plate average and StDev
[3] = LOPAC single-point screen, ADP-Glo Max raw signal per well
[4] = LOPAC single-point screen, Z-score from raw signal with plate average and StDev
[5] = LOPAC single-point screen, Z-score from plate average and StDev
[6] = Sigma LOPAC single-point screen, ADP-Glo Max raw signal per well
[7] = Sigma LOPAC single-point screen, Z-score from plate average and StDev
[8] = LOPAC single-point screen, Z-score against plate average and StDev

T1 sequence (Q92551 whole entry): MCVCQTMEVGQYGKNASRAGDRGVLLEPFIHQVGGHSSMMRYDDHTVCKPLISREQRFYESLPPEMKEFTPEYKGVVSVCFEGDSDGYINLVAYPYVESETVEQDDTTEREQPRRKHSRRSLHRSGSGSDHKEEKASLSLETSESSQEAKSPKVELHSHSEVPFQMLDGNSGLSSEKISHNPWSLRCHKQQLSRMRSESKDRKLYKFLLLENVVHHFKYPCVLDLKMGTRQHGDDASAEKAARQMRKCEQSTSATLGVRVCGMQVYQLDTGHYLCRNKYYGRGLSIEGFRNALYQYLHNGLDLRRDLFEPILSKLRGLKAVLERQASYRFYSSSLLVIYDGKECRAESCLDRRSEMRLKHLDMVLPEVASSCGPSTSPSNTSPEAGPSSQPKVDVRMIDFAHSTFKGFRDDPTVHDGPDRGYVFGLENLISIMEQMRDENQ

With `C#CCn1c(=O)c2c(ncn2C)n(C)c1=O` [3,7-Dimethyl-I-propargylxanthine] the “Raw Signal” value [1] was 50513 and the Z-score [2] was -0.9452.

With `NCCCS(=O)(=O)O.[Na]` [3-Amino-1-propanesulfonic acid sodium] the “Raw Signal” value [1] was 52858 and the Z-score [2] was -0.8903.

`N#CCCN.N#CCCN.O=C(O)/C=C/C(=O)O` [3-Aminopropionitrile fumarate] was tested, and the “Raw Signal” value [1] was 53618 and the Z-score [2] was -0.7565.

In the case of `NCCCP(=O)(O)O` [3-Aminopropylphosphonic acid], the “Raw Signal” value [3] is reported as 56234 and the Z-score [4] is reported as -0.2957.

With `O=[N+]([O-])c1cccc2c(Br)n[nH]c12` [3-Bromo-7-nitroindazole] the “Raw Signal” value [1] was 68484 and the Z-score [5] was 1.862.

With `NNCc1cccc(O)c1` [3-Hydroxybenzylhydrazine dihydrochloride] the “Raw Signal” value [3] was 53590 and the Z-score [4] was -0.3203.

`N[C@@H](Cc1ccc(O)c(I)c1)C(=O)O` [3-Iodo-L-tyrosine] was tested, and the “Raw Signal” value [1] was 50230 and the Z-score [2] was -0.6996.

For `CC(C)Cn1c(=O)n(C)c(=O)c2[nH]cnc21` [3-Isobutyl-1-methylxanthine], the “Raw Signal” value [6] was 62159 and the Z-score [7] was 1.305.

`COc1ccc2c(c1)[C@@]13CCCC[C@H]1[C@@H](C2)NCC3.Cl` [3-Methoxy-morphanin hydrochloride] was tested, and the “Raw Signal” value [3] was 54071 and the Z-score [8] was -0.05419.

With `Nc1c[n+](N2CCOCC2)no1.[Cl-]` [3-Morpholinosydnonimine hydrochloride] the “Raw Signal” value [3] was 53200 and the Z-score [4] was -0.2005.

With `O=C(O)CC[N+](=O)[O-]` [3-Nitropropionic acid] the “Raw Signal” value [3] was 53138 and the Z-score [4] was -0.211.

In the case of `Cl.NCC#Cc1ccccc1` [3-Phenylpropargylamine hydrochloride], the “Raw Signal” value [1] is reported as 53264 and the Z-score [2] is reported as -0.5362.

For `CN1[C@@H]2CC[C@H]1C[C@@H](OC(=O)c1cc(Cl)cc(Cl)c1)C2` [3-Tropanyl-3,5-dichlorobenzoate], the “Raw Signal” value [3] was 53877 and the Z-score [4] was -0.4171.

In the case of `NC(=O)c1cccc(N)c1` [3-aminobenzamide], the “Raw Signal” value [3] is reported as 56496 and the Z-score [4] is reported as -0.2496.

For `Nc1nccc2c1ncn2[C@@H]1O[C@H](CO)[C@@H](O)[C@H]1O` [3-deazaadenosine], the “Raw Signal” value [1] was 51727 and the Z-score [2] was -0.6986.

`CCCn1c(=O)[nH]c(=O)c2nc[nH]c21` [3-n-Propylxanthine] was tested, and the “Raw Signal” value [6] was 57454 and the Z-score [7] was 0.5142.

In the case of `Nc1ccc2c3c(cccc13)C(=O)NC2=O` [4-Amino-1,8-naphthalimide], the “Raw Signal” value [1] is reported as 55002 and the Z-score [2] is reported as -0.5127.

For `N=C(N)c1ccc(N)cc1` [4-Aminobenzamidine dihydrochloride], the “Raw Signal” value [1] was 52991 and the Z-score [2] was -0.8669.

With `Nc1ccncc1` [4-Aminopyridine] the “Raw Signal” value [3] was 56638 and the Z-score [4] was -0.2246.

With `C[C@]12CCC(=O)C(O)=C1CC[C@@H]1[C@@H]2CC[C@]2(C)C(=O)CC[C@@H]12` [4-Androsten-4-ol-3,17-dione] the “Raw Signal” value [1] was 53811 and the Z-score [2] was -0.7225.

`C[C@]12CCC(=O)C=C1CC[C@@H]1[C@@H]2CC[C@]2(C)C(=O)CC[C@@H]12` [4-Androstene-3,17-dione] was tested, and the “Raw Signal” value [3] was 58885 and the Z-score [8] was 0.1712.

For `O=C(O)c1cc[c]([Hg][Cl])cc1` [4-Chloromercuribenzoic acid], the “Raw Signal” value [3] was 56908 and the Z-score [4] was -0.177.

`C[N+]1(C)CCC(OC(=O)C(c2ccccc2)c2ccccc2)CC1.[I-]` [4-DAMP methiodide] was tested, and the “Raw Signal” value [1] was 63096 and the Z-score [5] was 1.6103.

For `COc1cc(CC(=O)O)ccc1O` [4-Hydroxy-3-methoxyphenylacetic acid], the “Raw Signal” value [6] was 58602 and the Z-score [7] was 0.6976.

For `NNC(=O)c1ccc(O)cc1` [4-Hydroxybenzhydrazide], the “Raw Signal” value [6] was 59100 and the Z-score [7] was 0.7987.

With `Cl.NCCc1ccc(O)cc1` [4-Hydroxyphenethylamine hydrochloride] the “Raw Signal” value [3] was 54724 and the Z-score [4] was -0.2525.

With `O=C(O)C=Cc1c[nH]cn1` [4-Imidazoleacrylic acid] the “Raw Signal” value [3] was 54766 and the Z-score [4] was -0.2444.

With `Cl.OCc1c[nH]cn1` [4-Imidazolemethanol hydrochloride] the “Raw Signal” value [3] was 56297 and the Z-score [8] was 0.2295.

With `Cc1cn[nH]c1.Cl` [4-Methylpyrazole hydrochloride] the “Raw Signal” value [1] was 63526 and the Z-score [5] was 1.5345.

`N#Cc1c(-c2ccccc2)no[n+]1[O-]` [4-Phenyl-3-furoxancarbonitrile] was tested, and the “Raw Signal” value [3] was 53966 and the Z-score [8] was -0.07183.

In the case of `Nc1ncnc2c1ncn2[C@@H]1O[C@H](C(=O)NC2CC2)[C@@H](O)[C@H]1O` [5 -(N-Cyclopropyl)carboxamidoadenosine], the “Raw Signal” value [3] is reported as 57761 and the Z-score [8] is reported as -0.02679.

In the case of `CCNC(=O)[C@H]1O[C@@H](n2cnc3c(N)ncnc32)[C@H](O)[C@@H]1O` [5 -N-Ethylcarboxamidoadenosine], the “Raw Signal” value [3] is reported as 52988 and the Z-score [4] is reported as -0.4425.

In the case of `CNC(=O)[C@H]1O[C@@H](n2cnc3c(N)ncnc32)[C@H](O)[C@@H]1O` [5 -N-Methyl carboxamidoadenosine], the “Raw Signal” value [1] is reported as 66682 and the Z-score [5] is reported as 1.544.

In the case of `CC1(C)CCC=[N+]1[O-]` [5,5-Dimethyl-1-pyrroline-N-oxide], the “Raw Signal” value [1] is reported as 51954 and the Z-score [2] is reported as -0.6525.

For `O=C1NC(=O)C(c2ccccc2)(c2ccccc2)N1` [5,5-Diphenylhydantoin], the “Raw Signal” value [3] was 54091 and the Z-score [4] was -0.2185.

For `O=C(O)c1cc(=O)c2c(Cl)cc(Cl)cc2[nH]1` [5,7-Dichlorokynurenic acid], the “Raw Signal” value [1] was 49912 and the Z-score [2] was -1.067.

In the case of `CN(C)c1nc(N)c(C(=O)NC(=N)N)nc1Cl` [5-(N,N-Dimethyl)amiloride hydrochloride], the “Raw Signal” value [3] is reported as 56769 and the Z-score [4] is reported as -0.2015.

For `N=C(N)NC(=O)c1nc(Cl)c(N2CCCCCC2)nc1N` [5-(N,N-hexamethylene)amiloride], the “Raw Signal” value [3] was 56870 and the Z-score [4] was -0.1837.

`CCN(c1nc(N)c(C(=O)NC(=N)N)nc1Cl)C(C)C` [5-(N-Ethyl-N-isopropyl)amiloride] was tested, and the “Raw Signal” value [3] was 57414 and the Z-score [8] was -0.08791.

With `CC(C)CN(C)c1nc(N)c(C(=O)N=C(N)N)nc1Cl` [5-(N-Methyl-N-isobutyl)amiloride] the “Raw Signal” value [3] was 57481 and the Z-score [8] was -0.0761.

In the case of `Cl.NCCCCC(=O)O` [5-Aminovaleric acid hydrochloride], the “Raw Signal” value [3] is reported as 58378 and the Z-score [8] is reported as 0.08188.

`NCCc1c[nH]c2ccc(C(N)=O)cc12.O=C(O)/C=C\C(=O)O` [5-Carboxamidotryptamine maleate] was tested, and the “Raw Signal” value [1] was 52599 and the Z-score [2] was -0.5215.

For `O=C(O)c1cc2cc(F)ccc2[nH]1` [5-Fluoroindole-2-carboxylic acid], the “Raw Signal” value was 61098 and the Z-score was 0.5609.

With `O=c1[nH]cc(F)c(=O)[nH]1` [5-Fluorouracil] the “Raw Signal” value [1] was 52294 and the Z-score [2] was -0.5835.

For `N[C@@H](Cc1c[nH]c2ccc(O)cc12)C(=O)O` [5-Hydroxy-L-tryptophan], the “Raw Signal” value [6] was 60622 and the Z-score [7] was 1.108.

With `O=C(O)Cc1c[nH]c2ccc(O)cc12` [5-Hydroxyindolacetic acid] the “Raw Signal” value [6] was 56978 and the Z-score [7] was 0.3678.

With `COc1ccc2[nH]cc(CCN(C)C)c2c1.O=C(O)C(=O)O` [5-Methoxy DMT oxalate] the “Raw Signal” value [6] was 59658 and the Z-score [7] was 0.8846.
